Data taken from patent US9113629B2, “4-amino-6-(4-substituted-phenyl)-picolinates and 6-amino-2-(4-substituted-phenyl)-pyrimidine-4-carboxylates and their use as herbicides” (DOW AGROSCIENCES LLC, priority 2013, dated 2015).
Like-named read-outs stand apart in the source and are kept apart here.

Tests used:
[1] = test system: Key Broadleaf Weed and Crop Species; assay: Post-emergent Test II herbicidal activity (Table 5); format: in vivo; conditions: post-emergence, 336 h, 14 days after application; for pest or weed control at 70 g/ha: application rate 70 g ai/ha; for pest or weed control at 140 g/ha: application rate 140 g ai/ha
Summary of the method: (§1)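 Foliar application at 187 L/ha to greenhouse-grown seedlings (first or second true leaf); subirrigation thereafter. Visual 0–100% injury at 14 d relative to untreated plants.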

[2] = test system: Key Grass and Sedge Weeds as well as Grass Crops; assay: Post-emergent Test II herbicidal activity (Table 6); format: in vivo; conditions: post-emergence, 336 h; for pest or weed control at 70 g/ha: 70 g ai/ha; for pest or weed control at 140 g/ha: 140 g ai/ha
Summary of the method: as §1

[3] = ABUTH: velvetleaf (Abutilon theophrasti), read-out: Visual Growth Reduction (%) 14 Days After Application, ABUTH
[4] = AMARE: redroot pigweed (Amaranthus retroflexus), read-out: Visual Growth Reduction (%) 14 Days After Application, AMARE
[5] = BRSNN: oilseed-rape, canola (Brassica napus), read-out: Visual Growth Reduction (%) 14 Days After Application, BRSNN
[6] = CHEAL: lambsquarters (Chenopodium album), read-out: Visual Growth Reduction (%) 14 Days After Application, CHEAL
[7] = EPHHL: wild poinsettia (Euphorbia heterophylla), read-out: Visual Growth Reduction (%) 14 Days After Application, EPHHL
[8] = HELAN: sunflower (Helianthus annuus), read-out: Visual Growth Reduction (%) 14 Days After Application, HELAN
[9] = VIOTR: wild pansy (Viola tricolor), read-out: Visual Growth Reduction (%) 14 Days After Application, VIOTR
[10] = CYPES: yellow nutsedge (Cyperus esculentus), read-out: Visual Growth Reduction (%) 14 Days After Application, CYPES
[11] = DIGSA: crabgrass (Digitaria sanguinalis), read-out: Visual Growth Reduction (%) 14 Days After Application, DIGSA
[12] = ECHCG: barnyardgrass (Echinochloa crus-galli), read-out: Visual Growth Reduction (%) 14 Days After Application, ECHCG
[13] = ORYSA: rice (Oryza sativa), crop, read-out: Visual Growth Reduction (%) 14 Days After Application, ORYSA
[14] = SETFA: giant foxtail (Setaria faberi), read-out: Visual Growth Reduction (%) 14 Days After Application, SETFA
[15] = SORVU: grain sorghum (Sorghum vulgare), read-out: Visual Growth Reduction (%) 14 Days After Application, SORVU
[16] = TRZSS (wheat, Triticum aestivum), crop, read-out: Visual Growth Reduction (%) 14 Days After Application, TRZSS
[17] = ZEAMX: maize, corn (Zea mays), crop, read-out: Visual Growth Reduction (%) 14 Days After Application, ZEAMX

## COC(=O)c1nc(-c2ccc(Br)cc2)cc(N)c1Cl [Compound 67]
[1]; [3]
  pest or weed control at 70 g/ha: 95 to 100%
  pest or weed control at 140 g/ha: 95 to 100%
[1]; [4]
  pest or weed control at 70 g/ha: 95 to 100%
  pest or weed control at 140 g/ha: 95 to 100%
[1]; [5]
  pest or weed control at 70 g/ha: 0 to 29%
  pest or weed control at 140 g/ha: 60 to 74%
[1]; [6]
  pest or weed control at 70 g/ha: 95 to 100%
  pest or weed control at 140 g/ha: 95 to 100%
[1]; [7]
  pest or weed control at 70 g/ha: 95 to 100%
  pest or weed control at 140 g/ha: 95 to 100%
[1]; [8]
  pest or weed control at 70 g/ha: 85 to 94%
  pest or weed control at 140 g/ha: 95 to 100%
[1]; [9]
  pest or weed control at 70 g/ha: 0 to 29%
  pest or weed control at 140 g/ha: 0 to 29%
[2]; [10]
  pest or weed control at 70 g/ha: 95 to 100%
  pest or weed control at 140 g/ha: 95 to 100%
[2]; [11]
  pest or weed control at 70 g/ha: 60 to 74%
  pest or weed control at 140 g/ha: 75 to 84%
[2]; [12]
  pest or weed control at 70 g/ha: 85 to 94%
  pest or weed control at 140 g/ha: 95 to 100%
[2]; [13]
  pest or weed control at 70 g/ha: 0 to 29%
  pest or weed control at 140 g/ha: 0 to 29%
[2]; [14]
  pest or weed control at 70 g/ha: 0 to 29%
  pest or weed control at 140 g/ha: 0 to 29%
[2]; [15]
  pest or weed control at 70 g/ha: 85 to 94%
  pest or weed control at 140 g/ha: 85 to 94%
[2]; [16]
  pest or weed control at 70 g/ha: 0 to 29%
  pest or weed control at 140 g/ha: 0 to 29%
[2]; [17]
  pest or weed control at 70 g/ha: 0 to 29%
  pest or weed control at 140 g/ha: 45 to 59%
